In patent US20130101680A1, “RADIOTHERAPY ENHANCER” (priority 2006, published 2013):

Tests used:
[1] = system: human pancreatic cancer strain PAN-4; assay: Tumor growth inhibition by S-1, 5-FU or gemcitabine and X-ray, human pancreatic cancer strain PAN-4 in nude mice (Test Example 3); type: in vivo, human (in BALB/cA-nu mouse); details: for radiotherapy enhancing effect (combination with X-ray), in words: combination with X-ray 2 Gy, PAN-4
Procedure: (b) Preparation of test solution II: 5-fluorouracil (5-FU: Wako Pure Chemical Industries, Ltd.) was dissolved in physiological saline at a concentration of 1.5 mg/mL and sterilized by filtration with a 0.45-micron Millipore filter to obtain a drug solution of 15 mg/kg as 5-FU.
(c) Preparation of test solution 3: Gemcitabine (2′-difluoro-2′,3′-dideoxycytidine: Sigma) was dissolved in physiological saline at a concentration of 5 mg/mL and sterilized by filtration with a 0.45-micron Millipore filter to obtain a drug solution of 50 mg/kg as gemcitabine.
(d) Radiation (X-ray) irradiation method: Local irradiation was performed on a human tumor strain transplanted into the right femoral region of the mouse using MBR-1505R Type 2 X-ray Irradiation System of Hitachi Medical Corporation under an irradiation condition (irradiation position) so that exposure per mouse should be 2 Gy or 5 Gy. To prevent systemic irradiation, mice were placed in a storage box made of lead so that only their right leg should be exposed to radiation.
(e) Test: The human pancreatic cancer strain (PAN-4) subcutaneously transplanted into the back of a BALB/cA-nu mouse and grown beforehand was removed, cut into small fragments of about 2×2 mm^2 with scissors in physiological saline, and subcutaneously transplanted into the right femoral region of 5 or 6-week-old mice of the same strain with a transplantation needle. The mice were prebred for at least 1 to 2 weeks and divided into the control group, the radiation alone group, the drug alone group, and the drug plus radiation group, so that the tumor volume and standard deviation (S.D.) in each group (n=6 per group) should be as uniform as possible. Then, drug administration and X-ray irradiation were initiated. […] For 5-FU and gemcitabine, the drug treatment group was administered intravenously with 0.1 mL of the above-described 5-FU and gemcitabine drug solutions per body weight 10 g using a syringe for intravenous infusion on days 1 and 8. The radiation group was irradiated with 2 Gy or 5 Gy of X-ray in the above-described manner within about 1 hour after administration of each drug solution on day 1, at the start of the test, and on day 8. Tumor-bearing mice in the control group (non-radiation/non-drug treatment group) and the radiation alone group were orally administered with 0.5% HPMC solution alone in the same manner for 14 consecutive days.
By using the above-mentioned numerical formula 1, the tumor volume of each mouse in each group was obtained prior to the start of treatment experiment, on days 3, 5, 8 (1 week later) and 11 during the treatment period, and days 15 (2 weeks later), 18, 22 (3 weeks later), 25, and 29 (4 weeks later) after completion of treatment. For the PAN-4 strain, a relative tumor volume (RTV) to the tumor volume at the start was obtained. The mean tumor growth inhibition rate (%) in each treatment group based on the control group was obtained by using the above-mentioned numerical formula 2 on days 15, at the end of the treatment period, 22, and 29 and shown in Table 4.

[2] = No-observed adverse effect level / maximum nontoxic dose in mice; details: as 5-FU; PAN-4 tumor-transplanted mouse, intravenous on days 1 and 8
[3] = system: human lung cancer LC-11 strain; assay: X-ray irradiation enhancing effect of cisplatin, human lung cancer LC-11 strain in nude mice (Comparative Example 1); type: in vivo, human (in BALB/cA-nu mouse)
Procedure: (a) Preparation of test solution I: The cisplatin solution (0.5 mg/mL) available from Bristol-Myers Squibb Company was used as it was. 0.1 mL per mouse body weight 10 g was administered for the dose of cisplatin 5 mg/kg, and […] per mouse body weight 10 g was administered for the dose of 7.5 mg/kg.
(b) Radiation (X-ray) irradiation method: Local irradiation was performed on a human tumor strain transplanted into the right femoral region of the mouse using MBR-1505R Type 2 X-ray Irradiation System of Hitachi Medical Corporation under an irradiation condition (irradiation position) so that exposure per mouse should be 2 Gy or 5 Gy. To prevent systemic irradiation, mice were placed in a storage box made of lead so that only their right leg should be exposed to radiation.
(c) Test: The human lung cancer LC-11 strain subcutaneously transplanted into the back of a BALB/cA-nu mouse and grown beforehand were removed, cut into small fragments of about 2×2 mm^2 with scissors in physiological saline, and subcutaneously transplanted into the right femoral region of 5 to 6-week-old mice of the same strain with a transplantation needle. The mice were bred for at least 1 to 2 weeks and divided into the control group, the radiation alone group, the drug alone group, and the drug plus radiation group, so that the tumor volume and standard deviation (S.D.) in each group (n=6 per group) should be as uniform as possible. Then, drug administration and X-ray irradiation were initiated. For the drug treatment group, 0.1 mL per body weight 10 g of a cisplatin solution for the dose of 5 mg/kg or […] per body weight 10 g of this solution for the dose of 7.5 mg/kg was administered into the caudal vein on day 1. The radiation group was irradiated with 2 Gy of X-ray in the above-described manner on day 1, at the start of the test, and on day 8. For tumor-bearing mice in the control group (non-radiation/non-drug treatment group) and the radiation alone group, physiological saline was administered into the caudal vein on day 1.
By using the above-mentioned numerical formula 1, the tumor volume of each mouse in each group was obtained prior to the start of treatment experiment, on days 3, 5, 8 (1 week later) and 11 during the treatment period, and days 15 (2 weeks later), 18, 22 (3 weeks later), 25, and 29 (4 weeks later) after completion of treatment. A relative tumor volume (RTV) to the tumor volume at the start of the test was obtained for each mouse. Then, the mean tumor growth inhibition rate (IR; %) in each treatment group based on the control group was obtained by using the above-mentioned numerical formula 2 on day 15, at the end of the treatment period, and on day 29, at 4 weeks later, and shown in Table 3.

[4] = BALB/cA-nu, mouse, in vivo, iv
[5] = 5-FU 15 mg/kg i.v. days 1 and 8 + X-ray 2 Gy
[6] = 5-FU 15 mg/kg i.v. days 1 and 8, alone
[7] = CDDP 5.0 mg/kg i.v. day 1 + X-ray 2 Gy
[8] = CDDP 5.0 mg/kg i.v. day 1, alone
[9] = CDDP 7.5 mg/kg i.v. day 1 + X-ray 2 Gy
[10] = CDDP 7.5 mg/kg i.v. day 1, alone
[11] = Gemcitabine 50 mg/kg i.v. days 1 and 8 + X-ray 2 Gy
[12] = Gemcitabine 50 mg/kg i.v. days 1 and 8, alone

With `O=c1[nH]cc(F)c(=O)[nH]1` [5-FU, 5-fluorouracil] the “Tumor growth inhibition rate (IR) (%) Day 15” value [1, 5] was 15.8%, the “Tumor growth inhibition rate (IR) (%) Day 22” value [1, 5] was 27.5% and the “Tumor growth inhibition rate (IR) (%) Day 29” value [1, 5] was 36.9%. For the same molecule, the “Tumor growth inhibition rate (IR) (%) Day 15” value [1, 6] was 12.4%, the “Tumor growth inhibition rate (IR) (%) Day 22” value [1, 6] was 16.8% and the “Tumor growth inhibition rate (IR) (%) Day 29” value [1, 6] was 29.2%. The “radiotherapy enhancing effect (combination with X-ray), in words” value (“radiotherapy enhancing effect” for short) [1] was “did not show marked effect of the combination use” and the maximum nontoxic dose [2] was 15 mg/kg.
In the case of `N.N.[Cl][Pt][Cl]` [cisplatin], the “IR (%) Day 15” value [3, 7] is reported as 53.8%, the “IR (%) Day 29” value [3, 7] is reported as 46.8% and the “IR (%) Day 15” value [3, 8] is reported as 39.9%. The “IR (%) Day 29” value [3, 8] was 45.6%, the “IR (%) Day 15” value [3, 9] was 54.6% and the “IR (%) Day 29” value [3, 9] was 66.8%. The “IR (%) Day 15” value [3, 10] was 55.8%, the “IR (%) Day 29” value [3, 10] was 60.2% and the “radiotherapy enhancing effect” value ([3]; cisplatin 5 mg/kg or 7.5 mg/kg with X-ray 2 Gy, LC-11) was “did not notably enhance antitumor effects compared with treatment with cisplatin alone”.
With `Nc1ccn([C@@H]2O[C@H](CO)[C@@H](O)C2(F)F)c(=O)n1` [Gemcitabine] the “Tumor growth inhibition rate (IR) (%) Day 15” value [1, 11] was 40.0%, the “Tumor growth inhibition rate (IR) (%) Day 15” value ([1]; Gemcitabine 50 mg/kg i.v. days 1 and 8 + X-ray 2 Gy, listed as gemcitabine) was 40% and the “Tumor growth inhibition rate (IR) (%) Day 22” value [1, 11] was 62.3%. For the same molecule, the “Tumor growth inhibition rate (IR) (%) Day 29” value [1, 11] was 63.9%, the “Tumor growth inhibition rate (IR) (%) Day 15” value [1, 12] was 39.8% and the “Tumor growth inhibition rate (IR) (%) Day 22” value [1, 12] was 51.1%. The “Tumor growth inhibition rate (IR) (%) Day 29” value [1, 12] was 51.1%, the “radiotherapy enhancing effect” value [1] was “did not show a strong effect of the combination use” and the “no-observed adverse effect level” value [4] was 50 mg/kg.
